In US20250114416A1, “ANTIVIRAL C[…] EXTRACT AND STEROID COMPOUND AS ACTIVE INGREDIENTS” (priority 2022, published 2025):
Where two headings read alike, the source gives them in different places.

Key:
Adenovirus type 5 [1] = assay type: cell-based; details: examples using ginseng (Table 1); Vero-E6 cells, 100 μg/ml pretreatment 2 h, 50 pfu/well, 72 h; non-treated control = 100
Adenovirus type 5 [2] = details: examples using ginseng (Table 1); lung tissue of K18-ACE2 TG mice, oral, three days after infection; non-treated control = 100

SMILES | Relative virus titer Adenovirus type 5 (Adenovirus type 5 [1]) | Relative virus titer Adenovirus type 5 (Adenovirus type 5 [2])
C[C@@H]1C[C@H]2[C@@H]3CCC4=CC(=O)C=C[C@]4(C)[C@@]3(F)[C@@H](O)C[C@]2(C)[C@@]1(O)C(=O)CO [Comparative Example 4, Dexamethasone] | 102 ± 1.9 | 102 ± 1.9
C[C@]12CCC(=O)C=C1CC[C@@H]1[C@@H]2[C@@H](O)C[C@@]2(C)[C@H]1CC[C@]2(O)C(=O)CO [Comparative Example 5, Hydrocortisone] | 103 ± 1.9 | 101 ± 1.9
C[C@]12C=CC(=O)C=C1CC[C@@H]1[C@@H]2[C@@H](O)C[C@@]2(C)[C@H]1CC[C@]2(O)C(=O)CO [Comparative Example 6, Prednisolone] | 102 ± 1.9 | 102 ± 1.9
C[C@]12C=CC(=O)C=C1CC[C@H]1[C@@H]3C[C@@H](O)[C@](O)(C(=O)CO)[C@@]3(C)C[C@H](O)[C@@]12F [Comparative Example 7, Triamcinolone] | 102 ± 1.9 | 101 ± 1.9
